# Patent US20250084080A1, “CRYSTALLINE AND SALT FORMS OF AN NLRP3 INHIBITOR” (BioAge Labs, Inc., priority 2023, published 2025)
# Assays:
# Format in all cases: physicochemical
# [1] = Hygroscopicity by dynamic vapor sorption (DVS) at 25° C.; settings: for Desorp. (%) / Sorp. (%): DVS 25° C.
# Method in brief: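 About 5–10 mg sample was cycled 40-0-95-0-40% RH in 10% steps at 25 °C with water vapour. Equilibrium criterion was 0.002 %/min dm/dt, with a minimum 60 min stability duration and a maximum 360 min per stage.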
# [2] = Solubility at 37° C. in buffers and biorelevant media, XRPD of residual solid; settings: for solubility at 2 h / solubility at 24 h: thermodynamic from solid
# Method in brief: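 Solids equivalent to 10 mg anhydrous free form were stirred in 5 mL of each medium (pH 1.2 HCl, pH 4.5 acetate, pH 6.8 phosphate, water, FaSSGF, FaSSIF-v1, FeSSIF-v1, HPMC/Pluronic in acetate) at 37 °C, 400 rpm. Sampled at 2 h and 24 h; supernatant analyzed by HPLC plus pH, 24 h residual solid by XRPD.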
# [3] = Bulk stability (solid state, 1 week; HPLC, XRPD, IC, color); parameters: key to CL (color): A: no change of color; B: slight discoloration; C: medium discoloration; D: strong discoloration
# Experimental: Bulk stability of free form Pattern B was evaluated at 25° C./92.5% RH in an open container, at 40° C./75% RH in an open container and at 60° C. in a tight container over 1 week.
# [4] = Competitive equilibration and water activity experiments; settings: water activity 0 to 0.4 at 5° C. and 0 to 0.6 at 25° C., equilibration 5 days
# Experimental: Relative stability of the hydrate Pattern A and the anhydrate Pattern B was investigated by competitive equilibration and water activity experiments at 5° C. and 25° C.
# [5] = Bulk stability (solid state, 1 week; HPLC, XRPD, IC, color); settings: sodium salt
# [6] = 2% HPMC + 1% Pluronic F68 in pH 4.5 acetate buffer (50 mM), 37° C.
# [7] = aqueous buffer, pH 4.5 acetate buffer (50 mM), 37° C.
# [8] = aqueous buffer, pH 6.8 phosphate buffer (50 mM), 37° C.
# [9] = aqueous with cosolvent or surfactant or cyclodextrin, 2% HPMC + 1% Pluronic F68 in pH 4.5 acetate buffer (50 mM), 37° C.
# [10] = fassgf or other biorelevant, FaSSGF, pH 1.6, 37° C.
# [11] = pH 4.5 acetate buffer (50 mM), 37° C.
# [12] = pH 6.8 phosphate buffer (50 mM), 37° C.
# [13] = simulated gastric fluid, pH 1.2 HCl buffer, 37° C.
# [14] = 25° C./92.5% RH open, 40° C./75% RH open, 60° C. tight container
# [15] = Solid state, 25° C./92.5% RH, open
# [16] = Solid state, 40° C./75% RH, open
smiles,measurement,setting,value
"CCOc1cc(C(=O)N(C)Cc2cnc(CO)c3cn[nH]c23)ccc1-c1cc(F)cc(F)c1 [Free form Pattern A, 2-ethoxy-3′,5′-difluoro-N-((4-(hydroxymethyl)-1H-pyrazolo[4,3-c]pyridin-7-yl)methyl)-N-methyl-[1,1′-biphenyl]-4-carboxamide]",Desorp. (%),"[1]; 0% RH, 1st desorption",0.01%
same,Sorp. (%),"[1]; 0% RH, 2nd sorption",0.01%
same,Desorp. (%),"[1]; 10% RH, 1st desorption",3.59%
same,Sorp. (%),"[1]; 10% RH, 2nd sorption",0.09%
same,Desorp. (%),"[1]; 20% RH, 1st desorption",3.74%
same,Sorp. (%),"[1]; 20% RH, 2nd sorption",3.45%
same,Desorp. (%),"[1]; 30% RH, 1st desorption",3.79%
same,Sorp. (%),"[1]; 30% RH, 2nd sorption",3.78%
same,Desorp. (%),"[1]; 40% RH, 1st desorption",3.83%
same,Sorp. (%),"[1]; 40% RH, 1st sorption",3.87%
same,Desorp. (%),"[1]; 40% RH, 2nd desorption",3.83%
same,Sorp. (%),"[1]; 40% RH, 2nd sorption",3.82%
same,Desorp. (%),"[1]; 50% RH, 1st desorption",3.93%
same,Sorp. (%),"[1]; 50% RH, 1st sorption",3.90%
same,Desorp. (%),"[1]; 50% RH, 2nd desorption",3.92%
same,Sorp. (%),"[1]; 50% RH, 2nd sorption",3.87%
same,Desorp. (%),"[1]; 60% RH, 1st desorption",4.00%
same,Sorp. (%),"[1]; 60% RH, 1st sorption",3.94%
same,Desorp. (%),"[1]; 60% RH, 2nd desorption",3.99%
same,Sorp. (%),"[1]; 60% RH, 2nd sorption",3.93%
same,Desorp. (%),"[1]; 70% RH, 1st desorption",4.07%
same,Sorp. (%),"[1]; 70% RH, 1st sorption",4.01%
same,Desorp. (%),"[1]; 70% RH, 2nd desorption",4.06%
same,Sorp. (%),"[1]; 70% RH, 2nd sorption",4.00%
same,Desorp. (%),"[1]; 80% RH, 1st desorption",4.17%
same,Sorp. (%),"[1]; 80% RH, 1st sorption",4.12%
same,Desorp. (%),"[1]; 80% RH, 2nd desorption",4.15%
same,Sorp. (%),"[1]; 80% RH, 2nd sorption",4.11%
same,Desorp. (%),"[1]; 90% RH, 1st desorption",4.35%
same,Sorp. (%),"[1]; 90% RH, 1st sorption",4.33%
same,Desorp. (%),"[1]; 90% RH, 2nd desorption",4.33%
same,Sorp. (%),"[1]; 90% RH, 2nd sorption",4.30%
same,Desorp. (%),"[1]; 95% RH, 1st desorption",4.61%
same,Sorp. (%),"[1]; 95% RH, 1st sorption",4.61%
same,Desorp. (%),"[1]; 95% RH, 2nd desorption",4.58%
same,Sorp. (%),"[1]; 95% RH, 2nd sorption",4.58%
same,Water absorbed from 40% RH to 80% RH,[1]; DVS at 25° C.,It absorbed 0.3%
same,XRPD after DVS test,[1]; DVS at 25° C.,No form change
same,pH of supernatant at 24 h,[2]; [6],(4.6)
same,pH of supernatant at 24 h,"[2]; FaSSGF, pH 1.6, 37° C.",(1.6)
same,pH of supernatant at 24 h,"[2]; FaSSIF-v1, pH 6.5, 37° C.",(6.5)
same,pH of supernatant at 24 h,"[2]; FeSSIF-v1, pH 5.0, 37° C.",(5.0)
same,pH of supernatant at 24 h,"[2]; Water, 37° C.",(6.3)
same,solubility at 2 h,[2]; [7],14.4 µg/mL
same,solubility at 24 h,[2]; [7],13.7 µg/mL
same,solubility at 2 h,[2]; [8],4.7 µg/mL
same,solubility at 24 h,[2]; [8],4.3 µg/mL
same,solubility at 2 h,[2]; [9],24.4 µg/mL
same,solubility at 24 h,[2]; [9],34.3 µg/mL
same,solubility at 2 h,[2]; [10],746 µg/mL
same,solubility at 24 h,[2]; [10],616 µg/mL
same,pH of supernatant at 24 h,"[2]; pH 1.2 HCl buffer, 37° C.",(1.2)
same,pH of supernatant at 24 h,[2]; [11],(4.5)
same,pH of supernatant at 24 h,[2]; [12],(6.8)
same,solubility at 2 h,[2]; [13],425 µg/mL
same,solubility at 24 h,[2]; [13],402 µg/mL
same,solubility at 2 h,"[2]; FaSSIF-v1, pH 6.5, 37° C.",14.5 µg/mL
same,solubility at 24 h,"[2]; FaSSIF-v1, pH 6.5, 37° C.",17.7 µg/mL
same,solubility at 2 h,"[2]; FeSSIF-v1, pH 5.0, 37° C.",142 µg/mL
same,solubility at 24 h,"[2]; FeSSIF-v1, pH 5.0, 37° C.",168 µg/mL
same,solubility at 2 h,"[2]; Water, 37° C.",5.6 µg/mL
same,solubility at 24 h,"[2]; Water, 37° C.",4.6 µg/mL
same,"Bulk stability, chemical and physical",[3]; [14],chemically and physically stable
same,Degradation by HPLC,[3]; [14],no obvious degradation
same,Form change by XRPD,[3]; [14],no form change
same,Bulk (HPLC) Purity,[3]; [15],97.9%
same,CL (color),[3]; [15],A
same,Bulk (HPLC) Purity,[3]; [16],97.7%
same,CL (color),[3]; [16],A
same,Bulk (HPLC) Purity,"[3]; Solid state, 60° C., closed",97.8%
same,CL (color),"[3]; Solid state, 60° C., closed",A
same,Form conversion,[4],converted to anhydrate Pattern B
"CCOc1cc(C(=O)N(C)Cc2cnc(CO)c3cn[nH]c23)ccc1-c1cc(F)cc(F)c1.[Na] [Sodium salt Pattern A, 2-ethoxy-3′,5′-difluoro-N-((4-(hydroxymethyl)-1H-pyrazolo[4,3-c]pyridin-7-yl)methyl)-N-methyl-[1,1′-biphenyl]-4-carboxamide sodium salt]",Bulk (XRPD),"[5]; 25° C./92.5% RH, open",dissociated to free form Pattern A
same,Bulk (XRPD),"[5]; 60° C., closed",No form change
same,Desorp. (%),"[1]; 0% RH, 1st desorption",0.05%
same,Sorp. (%),"[1]; 0% RH, 1st sorption",0.05%
same,Desorp. (%),"[1]; 0% RH, 2nd desorption",0.00%
same,Sorp. (%),"[1]; 0% RH, 2nd sorption",0.00%
same,Desorp. (%),"[1]; 10% RH, 1st desorption",0.20%
same,Sorp. (%),"[1]; 10% RH, 1st sorption",0.17%
same,Desorp. (%),"[1]; 10% RH, 2nd desorption",0.18%
same,Sorp. (%),"[1]; 10% RH, 2nd sorption",0.14%
same,Desorp. (%),"[1]; 20% RH, 1st desorption",0.28%
same,Sorp. (%),"[1]; 20% RH, 1st sorption",0.23%
same,Desorp. (%),"[1]; 20% RH, 2nd desorption",0.25%
same,Sorp. (%),"[1]; 20% RH, 2nd sorption",0.21%
same,Desorp. (%),"[1]; 30% RH, 1st desorption",0.35%
same,Sorp. (%),"[1]; 30% RH, 1st sorption",0.30%
same,Desorp. (%),"[1]; 30% RH, 2nd desorption",0.33%
same,Sorp. (%),"[1]; 30% RH, 2nd sorption",0.28%
same,Desorp. (%),"[1]; 40% RH, 1st desorption",0.45%
same,Sorp. (%),"[1]; 40% RH, 1st sorption",0.38%
same,Desorp. (%),"[1]; 40% RH, 2nd desorption",0.94%
same,Sorp. (%),"[1]; 40% RH, 2nd sorption",0.38%
same,Sorp. (%),"[1]; 50% RH, 1st sorption",0.49%
same,Desorp. (%),"[1]; 50% RH, 2nd desorption",1.69%
same,Sorp. (%),"[1]; 60% RH, 1st sorption",0.94%
same,Desorp. (%),"[1]; 60% RH, 2nd desorption",2.23%
same,Sorp. (%),"[1]; 70% RH, 1st sorption",1.87%
same,Desorp. (%),"[1]; 70% RH, 2nd desorption",2.55%
same,Sorp. (%),"[1]; 80% RH, 1st sorption",2.71%
same,Desorp. (%),"[1]; 80% RH, 2nd desorption",3.05%
same,Sorp. (%),"[1]; 90% RH, 1st sorption",4.13%
same,Desorp. (%),"[1]; 90% RH, 2nd desorption",4.35%
same,Sorp. (%),"[1]; 95% RH, 1st sorption",6.60%
same,Desorp. (%),"[1]; 95% RH, 2nd desorption",6.60%
same,XRPD after DVS test,"[1]; DVS at 25° C., sodium salt",No form change
same,pH of supernatant at 24 h,[2]; [6],(4.7)
same,Solubility compared with the free form Pattern A,[2]; 2% HPMC+1% Pluronic F68 in acetate buffer (pH 4.5),obviously improved solubility
same,pH of supernatant at 24 h,"[2]; FaSSGF, pH 1.6, 37° C.",(1.8)
same,pH of supernatant at 24 h,"[2]; FaSSIF-v1, pH 6.5, 37° C.",(6.7)
same,pH of supernatant at 24 h,"[2]; FeSSIF-v1, pH 5.0, 37° C.",(5.1)
same,pH of supernatant at 24 h,"[2]; Water, 37° C.",(11.1)
same,solubility at 2 h,[2]; [7],9.3 µg/mL
same,solubility at 24 h,[2]; [7],7.4 µg/mL
same,solubility at 2 h,[2]; [8],3.1 µg/mL
same,solubility at 24 h,[2]; [8],2.8 µg/mL
same,solubility at 2 h,[2]; [9],273 µg/mL
same,solubility at 24 h,[2]; [9],260 µg/mL
same,solubility at 2 h,[2]; [10],664 µg/mL
same,solubility at 24 h,[2]; [10],630 µg/mL
same,pH of supernatant at 24 h,"[2]; pH 1.2 HCl buffer, 37° C.",(1.3)
same,pH of supernatant at 24 h,[2]; [11],(4.6)
same,pH of supernatant at 24 h,[2]; [12],(7.0)
same,solubility at 2 h,[2]; [13],608 µg/mL
same,solubility at 24 h,[2]; [13],511 µg/mL
same,solubility at 2 h,"[2]; FaSSIF-v1, pH 6.5, 37° C.",10.2 µg/mL
same,solubility at 24 h,"[2]; FaSSIF-v1, pH 6.5, 37° C.",13.1 µg/mL
same,solubility at 2 h,"[2]; FeSSIF-v1, pH 5.0, 37° C.",144 µg/mL
same,solubility at 24 h,"[2]; FeSSIF-v1, pH 5.0, 37° C.",149 µg/mL
same,solubility at 2 h,"[2]; Water, 37° C.",7.7 µg/mL
same,solubility at 24 h,"[2]; Water, 37° C.",8.2 µg/mL
same,"Bulk stability, chemical and physical",[3]; [14],chemically stable but physically unstable
same,Degradation by HPLC,[3]; [14],no obvious degradation
same,Bulk (HPLC) Purity,[3]; [15],98.7%
same,CL (color),[3]; [15],A
same,Bulk (HPLC) Purity,[3]; [16],98.7%
same,CL (color),[3]; [16],A
same,Bulk (XRPD),"[3]; Solid state, 40° C./75% RH, open, sodium salt",dissociated to free form Pattern A
same,Bulk (HPLC) Purity,"[3]; Solid state, 60° C., closed",98.7%
same,CL (color),"[3]; Solid state, 60° C., closed",A
